Positions of bridges follow the written chain, without caps; N, C: chain ends. Chains are numbered I, II in the order given. No end group written: not given here.

The target in series [1] is T1, NKG2D (Homo sapiens, UniProt P26718).
T1 sequence (P26718 78-216 limits assumed): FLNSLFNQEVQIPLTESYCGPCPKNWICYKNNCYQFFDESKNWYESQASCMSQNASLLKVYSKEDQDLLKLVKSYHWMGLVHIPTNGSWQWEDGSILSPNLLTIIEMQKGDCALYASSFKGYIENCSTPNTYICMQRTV
Briefly: solid-phase binding assay with Fc-chimeric NKG2D. The settings on record: for inhibition of binding of SVH1C to NKG2D: fetuin 5, 10, 30 μM, sialyllactose 12, 20, 40 μM.

The nature of series [2]: MTS cell viability assay. The format is cell-based. The settings on record: human, human PBMCs; 3 days, peptide alone or with diluted anti-HIV antiserum, 1 nM to 1 μM. The protocol:
(§1) Human PBMCs were incubated 3 days with peptides and then assay plates were stained with the soluble tetrazolium-based dye MTS to determine cell viability. The mitochondrial enzymes of metabolically active cells metabolize MTS to yield a colored formazan product. After an incubation period of 4 to 6 h at 37° C., the plates were read spectrophotometrically. Cells treated with peptide SVH1C alone or with diluted anti-HIV antiserum were 100±2% viable at peptide concentrations of 1 nM to 1 μM. In another assay to determine cytotoxicity, cells were doubly stained with acridine orange and ethidium bromide. In this assay, viable cells fluoresce green while dead cells fluoresce red.
A general note: Tetrazolium assays rely on reduction of a dye to a coloured formazan, in cell work by metabolically active cells.

Series [3] deals with cells. As to the kind of experiment: acridine orange / ethidium bromide cytotoxicity assay. The settings on record: 1 mM. The class given is cell-based. The protocol:
as §1

The target of series [4] is CLEC9a (Homo sapiens, UniProt Q6UXN8). Briefly: solid-phase binding assay.
Description: (§2) The buffer in these assays was PBS containing 0.05% Tween-20. […] The receptors were Fc-chimeras and were assayed in protein A/G-coated microtiter wells. Siglec-1 and CLEC10a contained a C-terminal His tag and were assayed in a separate experiment with Ni-coated wells. SEM was determined from four independent experiments run in duplicate. Inhibition by fetuin is shown by the average of two assays in which the glycoprotein was added at 10 μM (second, black bar) or 30 μM (third, light grey bar) in each receptor group. Binding was measured by a colorimetric assay of peroxidase.
(§3) The buffer in these assays was PBS containing 0.05% Tween-20. […] The receptors were Fc-chimeras and were assayed in protein A/G-coated microtiter wells. The assay was similar to that described under FIG. 7.
(§4) Biotinylated peptides were then incubated with the receptors, the wells were stringently washed and the bound peptide was detected by binding of streptavidin conjugated with peroxidase.
For series [5], the target named is T2, CLEC10a (Homo sapiens, UniProt Q8IUN9).
T2 sequence (Q8IUN9 1-316): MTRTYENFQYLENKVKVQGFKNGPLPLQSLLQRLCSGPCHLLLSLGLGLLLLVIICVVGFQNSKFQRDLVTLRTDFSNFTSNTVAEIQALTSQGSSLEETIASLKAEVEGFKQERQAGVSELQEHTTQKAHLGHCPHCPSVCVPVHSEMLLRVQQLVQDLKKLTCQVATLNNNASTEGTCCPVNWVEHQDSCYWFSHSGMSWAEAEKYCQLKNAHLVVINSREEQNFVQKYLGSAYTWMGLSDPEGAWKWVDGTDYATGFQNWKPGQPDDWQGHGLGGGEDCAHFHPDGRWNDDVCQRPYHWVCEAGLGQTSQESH
As to the kind of experiment: solid-phase binding assay.
Description: as §2, §3, §4

Series [6] has as its target T3, DC-SIGN (Homo sapiens, UniProt Q9NNX6).
T3 sequence (Q9NNX6 1-404): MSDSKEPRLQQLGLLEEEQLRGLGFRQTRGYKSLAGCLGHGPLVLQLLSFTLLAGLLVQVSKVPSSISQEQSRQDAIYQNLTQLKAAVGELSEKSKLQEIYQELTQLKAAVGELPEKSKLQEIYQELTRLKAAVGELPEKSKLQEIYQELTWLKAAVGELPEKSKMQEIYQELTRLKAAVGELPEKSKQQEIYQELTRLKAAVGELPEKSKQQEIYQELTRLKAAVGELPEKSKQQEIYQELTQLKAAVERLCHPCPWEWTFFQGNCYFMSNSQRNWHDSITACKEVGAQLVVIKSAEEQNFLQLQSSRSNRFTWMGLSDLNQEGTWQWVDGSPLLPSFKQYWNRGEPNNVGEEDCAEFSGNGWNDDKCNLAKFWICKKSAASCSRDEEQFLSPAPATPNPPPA
As to the kind of experiment: solid-phase binding assay.
Description: as §2, §3, §4

In series [7] the target is langerin (Homo sapiens, UniProt Q9UJ71). As to the kind of experiment: solid-phase binding assay.
Description: (§5) The buffer in these assays was PBS containing 0.05% Tween-20. […] The receptors were Fc-chimeras and were assayed in protein A/G-coated microtiter wells.
as §4
The target of series [8] is T4, ASGPR-1 (Homo sapiens, UniProt P07306).
T4 sequence (P07306 1-291): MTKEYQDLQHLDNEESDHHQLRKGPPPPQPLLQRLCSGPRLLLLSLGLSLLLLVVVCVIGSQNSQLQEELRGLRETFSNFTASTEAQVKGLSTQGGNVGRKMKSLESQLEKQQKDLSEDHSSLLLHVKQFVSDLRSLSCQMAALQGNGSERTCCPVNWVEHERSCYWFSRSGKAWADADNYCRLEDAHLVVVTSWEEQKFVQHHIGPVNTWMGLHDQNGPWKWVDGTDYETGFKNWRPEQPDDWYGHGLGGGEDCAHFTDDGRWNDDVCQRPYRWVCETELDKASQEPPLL
Briefly: solid-phase binding assay.
Description: as §5, §4

In series [9] the target is T5, dectin-1 (Homo sapiens, UniProt Q9BXN2).
T5 sequence (Q9BXN2 1-247): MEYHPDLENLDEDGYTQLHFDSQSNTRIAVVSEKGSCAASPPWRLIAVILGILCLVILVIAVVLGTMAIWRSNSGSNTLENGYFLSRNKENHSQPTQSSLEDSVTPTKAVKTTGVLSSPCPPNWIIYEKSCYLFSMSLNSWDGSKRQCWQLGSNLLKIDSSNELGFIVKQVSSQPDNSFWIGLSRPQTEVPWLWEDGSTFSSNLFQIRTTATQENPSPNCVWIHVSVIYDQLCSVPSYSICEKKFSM
As to the kind of experiment: solid-phase binding assay.
Description: as §5, §4

Series [10] concerns the target Siglec-1 (Homo sapiens, UniProt Q9BZZ2). Briefly: solid-phase binding assay.
Description: as §5, §4
The test system of series [11] is ovarian cancer cell line. Briefly: mouse model of ovarian cancer, ascites monitored by body weight.
Description: Body weights of individual mice were measured during treatment with 1 or 0.1 nmole/g doses of SV6D (SEQ ID NO:5) injected subcutaneously every other day.
In a mouse model of ovarian cancer, a cancer cell line was implanted into the peritoneal cavity. The cells form tumors and in time also release malignant cells into the cavity. The activity of SV6D to treat ovarian cancer was tested by alternate-day injections of 1 and 0.1 nanomole per gram of SV6D. Development of ascites was monitored by an increase in body weight of the animals.
The test system of series [12] is siglecs. As to the kind of experiment: solid-phase binding assay, biotinylated peptide, streptavidin-peroxidase. The note with it: fetuin added at 10 μM or 30 μM.
Description: The buffer in these assays was PBS containing 0.05% Tween-20. […] The receptors were Fc-chimeras and were assayed in protein A/G-coated microtiter wells. Siglec-1 and CLEC10a contained a C-terminal His tag and were assayed in a separate experiment with Ni-coated wells. SEM was determined from four independent experiments run in duplicate. […] Binding was measured by a colorimetric assay of peroxidase.

Siglec-1, sequence (Q9BZZ2 20-1709): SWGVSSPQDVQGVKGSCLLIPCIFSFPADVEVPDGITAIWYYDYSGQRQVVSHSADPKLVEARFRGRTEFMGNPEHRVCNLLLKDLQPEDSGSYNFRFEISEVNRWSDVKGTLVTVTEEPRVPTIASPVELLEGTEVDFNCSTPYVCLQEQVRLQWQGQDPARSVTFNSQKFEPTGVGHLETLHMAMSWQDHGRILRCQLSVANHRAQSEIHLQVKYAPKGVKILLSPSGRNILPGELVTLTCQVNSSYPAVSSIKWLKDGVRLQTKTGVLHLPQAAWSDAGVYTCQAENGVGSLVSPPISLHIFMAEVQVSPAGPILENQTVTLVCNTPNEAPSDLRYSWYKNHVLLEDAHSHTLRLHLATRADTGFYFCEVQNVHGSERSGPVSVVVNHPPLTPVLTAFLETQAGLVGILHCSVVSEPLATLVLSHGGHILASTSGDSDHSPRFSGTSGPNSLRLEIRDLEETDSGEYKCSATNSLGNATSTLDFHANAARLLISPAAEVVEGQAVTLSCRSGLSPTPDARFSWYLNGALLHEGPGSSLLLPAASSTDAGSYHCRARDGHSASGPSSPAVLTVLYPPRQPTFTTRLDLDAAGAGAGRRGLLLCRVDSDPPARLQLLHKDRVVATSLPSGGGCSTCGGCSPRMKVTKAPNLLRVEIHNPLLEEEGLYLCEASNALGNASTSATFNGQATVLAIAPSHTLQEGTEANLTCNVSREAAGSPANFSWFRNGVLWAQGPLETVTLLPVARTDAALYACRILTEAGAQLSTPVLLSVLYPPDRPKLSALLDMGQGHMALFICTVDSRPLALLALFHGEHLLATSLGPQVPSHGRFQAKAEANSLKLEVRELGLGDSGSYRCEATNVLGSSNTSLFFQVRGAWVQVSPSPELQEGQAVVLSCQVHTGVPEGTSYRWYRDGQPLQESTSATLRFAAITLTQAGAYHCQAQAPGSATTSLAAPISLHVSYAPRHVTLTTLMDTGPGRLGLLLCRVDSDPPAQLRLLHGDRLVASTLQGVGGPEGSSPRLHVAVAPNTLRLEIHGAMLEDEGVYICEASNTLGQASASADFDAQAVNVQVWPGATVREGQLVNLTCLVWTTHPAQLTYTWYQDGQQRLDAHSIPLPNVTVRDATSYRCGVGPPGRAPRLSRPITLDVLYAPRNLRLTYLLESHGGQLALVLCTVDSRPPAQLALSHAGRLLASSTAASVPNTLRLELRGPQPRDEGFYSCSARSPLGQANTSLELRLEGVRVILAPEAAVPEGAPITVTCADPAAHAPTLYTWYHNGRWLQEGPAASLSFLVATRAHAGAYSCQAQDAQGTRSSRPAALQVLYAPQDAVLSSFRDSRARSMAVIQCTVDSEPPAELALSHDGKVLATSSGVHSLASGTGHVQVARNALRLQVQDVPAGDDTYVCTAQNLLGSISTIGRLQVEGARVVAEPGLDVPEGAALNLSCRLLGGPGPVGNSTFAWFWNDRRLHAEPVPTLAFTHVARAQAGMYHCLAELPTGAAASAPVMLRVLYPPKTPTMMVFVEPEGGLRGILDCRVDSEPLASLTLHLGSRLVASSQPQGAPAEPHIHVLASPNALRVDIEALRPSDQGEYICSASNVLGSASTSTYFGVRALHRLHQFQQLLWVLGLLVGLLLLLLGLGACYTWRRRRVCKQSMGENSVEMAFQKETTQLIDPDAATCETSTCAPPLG
langerin, sequence (Q9UJ71 whole entry): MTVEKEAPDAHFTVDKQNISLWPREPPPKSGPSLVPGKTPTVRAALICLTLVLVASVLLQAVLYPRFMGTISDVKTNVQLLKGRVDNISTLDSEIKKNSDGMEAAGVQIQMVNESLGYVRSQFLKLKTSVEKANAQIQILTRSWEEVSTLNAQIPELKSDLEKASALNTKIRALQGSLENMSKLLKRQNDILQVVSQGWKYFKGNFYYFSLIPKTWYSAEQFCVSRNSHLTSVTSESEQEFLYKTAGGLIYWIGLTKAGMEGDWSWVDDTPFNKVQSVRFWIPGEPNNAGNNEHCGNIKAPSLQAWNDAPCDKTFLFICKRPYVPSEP
CLEC9a, sequence (Q6UXN8 whole entry): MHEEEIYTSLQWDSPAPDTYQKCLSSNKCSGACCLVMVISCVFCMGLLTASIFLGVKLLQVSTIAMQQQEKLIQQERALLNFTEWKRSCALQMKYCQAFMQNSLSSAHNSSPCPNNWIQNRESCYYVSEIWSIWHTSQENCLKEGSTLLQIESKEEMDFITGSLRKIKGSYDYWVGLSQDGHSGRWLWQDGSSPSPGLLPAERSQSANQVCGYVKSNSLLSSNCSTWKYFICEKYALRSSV

What is called Kd is the free concentration of one partner at which half of the binding sites on the other are occupied at equilibrium, for simple one-to-one binding. A high value points to weaker binding. In general, viability refers to the share of living cells, or the viability signal relative to a control. High values mean less harm to the cells, low ones more harm to the cells. In turn, “I: NPSHPLSGGGGSKK-NH2 / II: NPSHPLSGGGGSK / III: NPSHPLSGGGGS / IV: NPSHPLSGGGGS (amide I:13-IV:C, I:14-II:C, II:13-III:C) [SVH1C, [NPSHPLSGGGGS]4K3-NH2]” gave a Kd in [1] of about 1000 nM. In addition, in series [2], the viability at 72 h was 100 ± 2%. For the same substance, the cytotoxicity entry in [3] is “did not exhibit cytotoxicity”.
With [NQHTPRGGGS]4K3-NH2 [SV6D], in series [4], the “binding to CLEC9a” value is on record as “not”. Besides, the “binding to CLEC10a” value in series [5] is reported as “bound strongly”. Also, the “binding to DC-SIGN” value in series [6] is recorded as “not”. The binding to langerin result in [7] was “bound strongly”. The “binding to ASGPR-1” value in series [8] is “bound strongly”. Further, in series [9], the “binding to dectin-1” value is on record as “bound strongly”. Besides, in series [10], the “binding to Siglec-1” value was “not”. Moreover, in series [11], the progression of ascites entry is reported as “effectively inhibited”.
sialyllactose: the “inhibition of binding of SVH1C to NKG2D” value in series [1] was “inhibited”.
As to fetuin, the “inhibition of binding of SVH1C to NKG2D” value in series [1] is reported as “inhibited”. In addition, the “inhibition of binding of SVH1C to siglecs” value in [12] is “inhibited”.

Values taken from patent publication US10821151B2, “Compositions and methods for treating cancer and persistent viral infections” (SUSAVION BIOSCIENCES, INC., priority 2015, dated 2020).
